Assay [1] deals with T1, Nitric oxide synthase, inducible (Mus musculus, UniProt P29477).
T1 sequence (P29477 whole entry): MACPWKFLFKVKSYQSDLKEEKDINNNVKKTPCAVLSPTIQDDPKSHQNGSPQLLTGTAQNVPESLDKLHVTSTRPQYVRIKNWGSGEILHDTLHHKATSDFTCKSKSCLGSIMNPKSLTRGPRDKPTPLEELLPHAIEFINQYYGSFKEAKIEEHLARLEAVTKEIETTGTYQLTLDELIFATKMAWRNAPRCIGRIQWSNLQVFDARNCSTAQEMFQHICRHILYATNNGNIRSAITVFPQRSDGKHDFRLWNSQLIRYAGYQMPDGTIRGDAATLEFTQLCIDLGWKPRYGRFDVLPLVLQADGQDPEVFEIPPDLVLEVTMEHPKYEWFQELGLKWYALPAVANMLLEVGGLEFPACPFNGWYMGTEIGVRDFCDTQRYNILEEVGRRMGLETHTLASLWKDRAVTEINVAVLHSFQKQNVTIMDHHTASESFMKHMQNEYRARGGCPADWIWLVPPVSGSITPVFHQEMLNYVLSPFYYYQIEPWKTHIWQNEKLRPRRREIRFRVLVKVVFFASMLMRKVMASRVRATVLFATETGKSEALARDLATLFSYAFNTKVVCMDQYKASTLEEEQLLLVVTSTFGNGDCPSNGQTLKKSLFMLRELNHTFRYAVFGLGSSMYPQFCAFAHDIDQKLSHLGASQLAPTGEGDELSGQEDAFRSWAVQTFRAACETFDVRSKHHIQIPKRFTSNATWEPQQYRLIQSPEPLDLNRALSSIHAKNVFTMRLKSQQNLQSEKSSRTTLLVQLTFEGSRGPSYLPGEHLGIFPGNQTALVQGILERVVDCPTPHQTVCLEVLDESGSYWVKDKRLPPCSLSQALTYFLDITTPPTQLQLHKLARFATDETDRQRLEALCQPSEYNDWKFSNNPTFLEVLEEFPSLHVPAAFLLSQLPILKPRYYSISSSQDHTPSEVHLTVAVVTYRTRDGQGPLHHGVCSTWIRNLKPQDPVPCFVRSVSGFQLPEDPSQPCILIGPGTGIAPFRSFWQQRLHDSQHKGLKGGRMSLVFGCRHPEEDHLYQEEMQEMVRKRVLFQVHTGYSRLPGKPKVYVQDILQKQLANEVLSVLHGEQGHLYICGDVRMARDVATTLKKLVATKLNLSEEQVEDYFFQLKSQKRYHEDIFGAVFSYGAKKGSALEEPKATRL
Description: Inhibition of mouse recombinant iNOS expressed in Escherichia coli using L-arginine as substrate up to 180 seconds by hemoglobin capture assay

The target of assay [2] is T2, Nitric oxide synthase 3 (Bos taurus, UniProt P29473).
T2 sequence (P29473 whole entry): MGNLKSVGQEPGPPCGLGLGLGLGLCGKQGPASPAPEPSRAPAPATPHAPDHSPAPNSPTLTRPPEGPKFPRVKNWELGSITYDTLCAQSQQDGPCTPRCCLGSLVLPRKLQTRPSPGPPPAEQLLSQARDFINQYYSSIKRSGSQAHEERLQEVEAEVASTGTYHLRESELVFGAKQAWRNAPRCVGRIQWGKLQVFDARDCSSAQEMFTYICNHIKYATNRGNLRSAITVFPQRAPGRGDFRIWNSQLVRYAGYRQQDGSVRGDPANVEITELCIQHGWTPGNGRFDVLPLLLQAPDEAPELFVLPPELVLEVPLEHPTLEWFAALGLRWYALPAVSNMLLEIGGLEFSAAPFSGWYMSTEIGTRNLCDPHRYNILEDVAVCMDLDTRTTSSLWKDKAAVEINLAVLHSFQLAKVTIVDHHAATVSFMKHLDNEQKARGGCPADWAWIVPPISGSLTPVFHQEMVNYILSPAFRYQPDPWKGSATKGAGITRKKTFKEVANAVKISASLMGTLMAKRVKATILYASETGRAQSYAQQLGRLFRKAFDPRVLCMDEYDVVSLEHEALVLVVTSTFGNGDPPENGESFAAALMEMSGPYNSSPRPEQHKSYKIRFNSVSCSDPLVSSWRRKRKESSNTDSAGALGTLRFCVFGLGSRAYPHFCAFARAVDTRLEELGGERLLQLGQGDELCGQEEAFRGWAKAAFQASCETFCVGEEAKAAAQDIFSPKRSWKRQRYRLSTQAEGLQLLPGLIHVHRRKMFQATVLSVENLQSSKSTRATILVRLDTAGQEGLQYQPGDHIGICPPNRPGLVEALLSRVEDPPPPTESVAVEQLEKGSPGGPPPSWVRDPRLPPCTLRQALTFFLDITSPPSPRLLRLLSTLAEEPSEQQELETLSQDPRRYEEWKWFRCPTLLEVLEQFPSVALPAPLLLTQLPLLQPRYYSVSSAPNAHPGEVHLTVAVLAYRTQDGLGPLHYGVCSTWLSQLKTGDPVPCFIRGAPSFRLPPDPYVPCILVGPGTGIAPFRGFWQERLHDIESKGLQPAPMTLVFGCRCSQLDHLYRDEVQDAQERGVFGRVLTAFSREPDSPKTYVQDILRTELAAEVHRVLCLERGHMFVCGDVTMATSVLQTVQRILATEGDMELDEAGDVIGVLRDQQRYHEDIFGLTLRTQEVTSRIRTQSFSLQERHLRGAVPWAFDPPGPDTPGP
Description: Inhibition of bovine recombinant eNOS expressed in Escherichia coli using L-arginine as substrate up to 180 seconds by hemoglobin capture assay

For the molecule `Cc1cc(N)nc(COCCOCc2cc(C)cc(N)n2)c1`, the inhibition constant Ki (in general, a measure of affinity in units of concentration, obtained from inhibition or displacement) in assay [1] was found to be 2.93 µM; in assay [2] it was 5.26 µM.
